# From a melting point compilation (Tetko et al.)
# Details: a range is the spread between reports
row,Compound,melting point
1,CCc1cccc(C)c1C,-50 to -49.5 °C
2,C1COCCN1,-5 to -4.8 °C
3,CCCCC(=O)c1ccccc1,-9.4 to -9 °C
4,BrCc1ccc2ccccc2c1,53 to 56 °C
5,CCOC=O,-81 to -79.6 °C
6,CC(=O)c1ccc(Br)s1,94.5 to 95 °C
7,NC(=O)CI,93.5 to 94.5 °C
8,CCOC(=O)C(C(=O)OCC)c1ccccc1,16 to 16.5 °C
9,CCNC(=O)NCC,110 to 112 °C
10,Nc1cccc(CO)c1,93 to 95 °C
11,NC(=O)c1ccc(N)nc1,246 to 247 °C
12,NC(=O)c1ccccc1[N+](=O)[O-],176 to 177 °C
13,CCCC1CCCCC1,-95 to -94.9 °C
14,N#Cc1c[nH]cc1-c1cccc2c1OC(F)(F)O2,199 °C
15,O=C1CC[C@@H](C(=O)O)N1,160 to 162 °C
16,COc1ccc([N+](=O)[O-])c(OC)c1,74 to 76.5 °C
17,N#CC1=C(C#N)C(=O)C(Cl)=C(Cl)C1=O,214 to 215 °C
18,CC(=O)NN,64 to 67 °C
19,c1ccc2c(c1)Cc1ccccc1-2,112 to 116 °C
20,CC1=C(C)CCC1,-90.4 to -90 °C
21,COc1cccc(OC)c1C,39 to 40 °C
22,NC(=O)c1cccc2ccccc12,206 to 208 °C
23,Cc1cccc2c1ccc1cc(C(C)C)ccc12,99 to 101 °C
24,CC(Br)CBr (configuration not stated),-55.5 to -55 °C

row,Compound,melting point
1,Cc1ccc(-c2ccccc2)cc1,46 to 49.5 °C
2,Cc1cc(C)cc(C(=O)O)c1,170 to 171 °C
3,COP(=S)(OC)Oc1ccc([N+](=O)[O-])cc1,35.5 to 36 °C
4,O=C(O)c1cc(Cl)ccc1Cl,152 to 156 °C
5,N#Cc1ccccc1Cl,45 to 46.3 °C
6,Cc1ccc(S)c(S)c1,29 to 31 °C
7,CC(CCC(=O)O)CC(=O)O (configuration not stated),100 to 101 °C
8,Brc1cncc2ccccc12,41 to 41.5 °C
9,N#Cc1ccncc1,76 to 79 °C
10,CC(C)(c1ccccc1)c1ccc(O)cc1,70 to 75 °C
11,CC(C)Nc1ccc(Nc2ccccc2)cc1,74 to 77 °C
12,CC[Si](CC)(CC)CC,-82.5 to -82 °C
13,Oc1c(F)cccc1F,38 to 39.5 °C
14,c1ccc([Si](c2ccccc2)(c2ccccc2)c2ccccc2)cc1,236 to 237 °C
15,N#Cc1cccc(N)c1,52 to 54.3 °C
16,C(=C\c1ccccc1)/c1ccccc1,123 to 126 °C
17,CC(C)(C)c1ccccc1O,-7 to -6.8 °C
18,FC(F)(F)c1ccc(Cl)cc1,-36 to -33 °C
19,Oc1cccc2cccnc12,74 to 76 °C
20,O=C(O)c1cc(I)cc(I)c1O,231 to 236 °C
21,N#Cc1ccc(C#N)cc1,224 to 226 °C
22,O=c1cc(CO)occ1O,154 °C
23,Brc1ccc(Br)cc1,87 to 88 °C
24,NCc1ccncc1,-8 to -7.6 °C

row,Compound,melting point
1,CC(=O)c1ccc(Cl)cc1,18 to 20 °C
2,Cc1ccccc1CCl,-2 to 2 °C
3,N#CSCc1ccccc1,42 to 43 °C
4,Brc1ccc(I)cc1,91 to 92 °C
5,C=C,-169 °C
6,Clc1c(Cl)c(Cl)c(Cl)c(Cl)c1Cl,228 to 232 °C
7,Cc1ccc(Cl)cc1[N+](=O)[O-],36 to 39 °C
8,O=C(O)c1cc(Cl)c(O)c(Cl)c1,265 to 268 °C
9,O=C(CBr)c1ccc(Br)cc1,109 to 111 °C
10,CN=C=S,32 to 36 °C
11,O=C(O)CCCCCCCC(=O)O,102 to 106 °C
12,O=P(O)(Oc1ccccc1)Oc1ccccc1,66 to 67.5 °C
13,Clc1cc(Cl)c(Cl)nc1Cl,90.5 to 91 °C
14,COC(=O)c1cc(Cl)ccc1[N+](=O)[O-],48.5 to 49 °C
15,Nc1cccc2ncccc12,108 to 110 °C
16,CN(C)c1ccccc1,2 to 3 °C
17,CC(CO)(CO)[N+](=O)[O-],150 °C
18,O=P(O)(O)c1ccccc1,161 to 164 °C
19,CCCC(C)(C)C(C)C,-117 °C
20,CCCCc1ccccc1,-88 to -87.9 °C
21,O=C(O)c1cc(Br)ccc1Br,155 to 157 °C
22,c1ccc(CSc2ccccc2)cc1,41 to 43.5 °C
23,O=C1C=CCO1,4 to 4.5 °C
24,O=P(O)(O)CCCl,70 to 74.5 °C

row,Compound,melting point
1,Clc1ccc(Cl)nn1,67.5 to 68 °C
2,CCNC(=O)C(=O)NCC,175 to 180 °C
3,CC(c1ccccc1)c1ccccc1,-18 to -17.9 °C
4,Cc1nc2ccccc2[nH]1,176 °C
5,O=S(=O)(Cl)Cl,-54.1 to -54 °C
6,CC(Cl)(Cl)Cl,-33 to -30 °C
7,N#CC(Cl)(Cl)Cl,-44 to -42 °C
8,NNC(=O)c1ccccc1[N+](=O)[O-],121 to 124 °C
9,COC(=O)CCl,-32.1 to -32 °C
10,N#CCC#N,32 to 34 °C
11,ClC1=C(Cl)C2(Cl)C3C(Cl)C=CC3C1(Cl)C2(Cl)Cl (configuration not stated),95 to 95.5 °C
12,ClC(Br)Br,-22 to -20 °C
13,Nc1cccc(Cl)c1Cl,22 to 24 °C
14,CCCCCCCC(C)C,-75 to -74.6 °C
15,CC(C)(C)c1cccc(O)c1,41 to 45 °C
16,CCCCCCCCCCCCCCCCCCCCC,39 to 41 °C
17,CCCCCCCCCCCCCCCCCCCC,36 to 37 °C
18,O=C(Oc1cccc(O)c1)c1ccccc1,132 to 134 °C
19,O=C1CC(=O)NC(=S)N1,234 to 235 °C
20,CCC1(C2=CCCCC2)C(=O)NC(=O)NC1=O,172 to 173 °C
21,O=C(Cl)c1ccccc1C(=O)Cl,12 to 15.5 °C

# Second part, the compound after the results:
row,melting point,Compound
1,-73.2 to -73 °C,CCCC(=O)OCCC(C)C
2,161 to 164 °C,CC(=O)Oc1ccc(-c2ccc(OC(C)=O)cc2)cc1
3,117 to 118 °C,c1cnc2c(c1)ccc1cccnc12
4,146 to 147 °C,COc1cc(Cl)ccc1C(=O)O
5,24 to 27 °C,COc1ccc(C)cc1OC
6,174 to 175 °C,O=C(O)C12CC3CC(CC(C3)C1)C2
7,-4 to -1.9 °C,CCCCCC(=O)O
8,-51.3 to -51 °C,CC(=O)OCc1ccccc1
9,95 to 96 °C,Oc1cccc2ccccc12
10,184 to 186 °C,COc1cc(OC)cc(C(=O)O)c1
11,144 to 146 °C,O=C(CCC(=O)c1ccccc1)c1ccccc1
12,-27.3 to -27 °C,CC(=O)CC(=O)OC(C)C
13,55 to 56 °C,O=C(c1ccccc1)C1CCCCC1
14,56.4 to 57 °C,CCCCCCCCCCCCCCCCCCCCCCCCCC
15,124 °C,CCOC(=O)n1ccn(C)c1=S
16,196 to 199 °C,c1ccc2c(c1)c1ccccc1c1ccccc21
17,125 to 130 °C,CC(C)(CO)CO
18,-67.1 to -67 °C,CC(=O)CCC=C(C)C
19,-62 to -60 °C,CCCCNCCCC
20,97 °C,c1ccc2n[nH]nc2c1
21,-55.5 to -55 °C,CCCC(=O)CC
22,147 to 150 °C,COc1ccc(C=O)c(C(=O)O)c1OC
23,0 to 2 °C,CCOC(=O)/C=C/C(=O)OCC
24,64 to 65.5 °C,COc1ccc(C(=O)c2ccccc2)c(O)c1
25,65 to 66 °C,COc1cc(CNC(=O)CCCCC=CC(C)C)ccc1O
26,296 to 300 °C,O=C(O)c1ccccc1-c1c2cc(Br)c(=O)c(Br)c-2oc2c(Br)c(O)c(Br)cc12
27,-41 to -40 °C,CCOC(=O)C(=O)OCC

row,melting point,Compound
1,35 to 38.5 °C,NCCCCCO
2,-22 to -18 °C,Cc1cc(C)cc(C(C)(C)C)c1
3,-90 to -88 °C,CC(C)O
4,57 to 62 °C,Oc1ccc2c(c1)CCCC2
5,37 to 39 °C,CCOc1ccc(C(C)=O)cc1
6,112 to 114 °C,ClC(c1ccccc1)(c1ccccc1)c1ccccc1
7,142 to 143 °C,NC(=O)c1ccccc1Cl
8,-62 to -61.9 °C,COC(=O)CC(=O)OC
9,-62.3 to -62 °C,CCc1ccc(C)cc1
10,216 to 218 °C,CC(C)(C)c1cc(O)c(C(C)(C)C)cc1O
11,28 to 29.5 °C,Cc1ccc(C#N)cc1
12,60 to 61 °C,O=C1CCCCCCCCCCC1
13,116 to 118 °C,O=C(Oc1cccc(OC(=O)c2ccccc2)c1)c1ccccc1
14,-111 °C,CC(C)C1CCCC1
15,65 to 67 °C,O=C(c1ccc(Cl)cc1)c1ccccc1Cl
16,8 to 8.32 °C,O=CO
17,142 to 143 °C,O=C1Cc2ccccc2C(=O)O1
18,39 to 41 °C,O=C(O)CCCl
19,-42 to -41.7 °C,Fc1ccc(C(F)(F)F)cc1
20,42 to 45 °C,CCCCCCCCCCCCCCCCCCCCCC
21,270 to 273 °C,CS(=O)(=O)c1ccc(C(=O)O)cc1
22,151 to 152 °C,O=S(=O)(Cc1ccccc1)Cc1ccccc1
23,16.6 to 17 °C,CC(=O)O
24,43.5 to 48 °C,CC12CCC(C1)C(C)(C)C2O (configuration not stated)
25,-64 to -60 °C,Cc1ccnc(C)c1
26,45 to 48 °C,CCCCCCCCC#CCCCCCCCC(=O)O
27,42 to 42.8 °C,COc1cccc(O)c1O

row,melting point,Compound
1,-92 to -91 °C,CCCCC=O
2,146 °C,O=C(C=Cc1cccc([N+](=O)[O-])c1)c1ccccc1
3,-128 °C,CC(C)CC(C)C(C)C (configuration not stated)
4,43.2 to 45 °C,CCCCCCCCCCCC(=O)O
5,5 to 6.1 °C,CC12CCC(C1)C(C)(C)C2=O (configuration not stated)
6,-85 to -84.7 °C,COC(=O)C(C)C
7,90 to 93 °C,Nc1nccs1
8,1.8 to 2 °C,CC(Br)C(C)(Br)Br (configuration not stated)
9,9 to 13 °C,CCCCCCCCC(=O)CC
10,105 to 108 °C,O=Cc1ccc([N+](=O)[O-])cc1
11,-93 to -92.9 °C,CC#CCC(C)C
12,119 to 120 °C,O=c1c(-c2ccccc2)c1-c1ccccc1
13,-46 to -44 °C,CCCCCCCCI
14,27 to 27.5 °C,NCCCCN
15,83 to 86 °C,O=C(O)Cc1ccc(F)cc1
16,40.3 to 44 °C,CCC(C)(CO)CO
17,86 to 87 °C,COc1cc(C#N)ccc1O
18,65 to 70 °C,Nc1cccc2cccnc12
19,71 to 73 °C,Cc1cc(C)c(Br)cc1C
20,-113 °C,CC(C)C1CC1
21,41 to 43.5 °C,C1CNCCNC1
22,224 to 225 °C,c1ccc(C(=C(c2ccccc2)c2ccccc2)c2ccccc2)cc1
23,107 to 108 °C,Cc1cc(O)cc(O)c1
24,-118 °C,CCCCC(C)C
25,100 to 102 °C,OC1CCCCC1O (configuration not stated)
